Test results reported in patent publication US10028966B2 (Avalyn Pharma Inc., priority 2014, dated 2018).
≈ marks a conversion by molar mass, not a printed value.

Legend:
[1] = Co-solvent and surfactant effects on pirfenidone saturation solubility; type: physicochemical; conditions: thermodynamic from solid;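 further: samples equilibrated by overnight agitation at ambient temperature, with solubility taken from the supernatant after undissolved solid was removed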
Method: Each sample was agitated at ambient temperature overnight. The samples were visually inspected and appearance recorded. Samples were centrifuged to sediment any un-dissolved material and the supernatant withdrawn via syringe through a 0.22 μm PVDF filter. […] The remaining filtered sample was split into three equal volumes in glass vials and placed at 25° C./60 RH, 40° C./75 RH and refrigeration. Samples are wrapped in aluminum foil to reduce light exposure. After the first night of incubation, samples are briefly visually inspected for any signs of discoloration or precipitate formation.

[2] = Extended-duration intratracheal and oral pharmacokinetic study; type: in vivo, Wistar rats; conditions: for AUC(0-t) / Cmax: Wistar, rat, plasma
Method: Previous intratracheal aerosol delivery (see Example 6) was performed as a single bolus instillation just above the first bifurcation of the lung. For in vivo efficacy studies, an attempt was made to mimic tidal inhaled breathing by splitting the dose into equal parts and administering as before, but over a 2 minute period. […] Doses were prepared in 0.45% sodium chloride solution and were administered as described in Table 21.
Plasma samples and entire lungs were taken at pre-dose, 2, 4, 6, 10, 30, 60 and 120 minutes post dosing. Materials were extracted and pirfenidone quantitated as mcg/mL plasma and μg/gram lung tissue.

[3] = inhaled or intranasal, intratracheal aerosol 2.5 mg/kg
[4] = inhaled or intranasal, intratracheal aerosol 5 mg/kg
[5] = inhaled or intranasal, intratracheal aerosol 10 mg/kg
[6] = intratracheal aerosol 2.5 mg/kg

Cc1ccc(=O)n(-c2ccccc2)c1 [pirfenidone, 5-methyl-1-phenyl-2-(1H)-pyridone]
solubility ([1]; aqueous co-solvent/surfactant solvent system, pH 6.6, aqueous with cosolvent or surfactant or cyclodextrin, 8% EtOH, 0% PG, 92% phosphate buffer (5 mM), pH 6.6): 26.7 mg/mL (≈ 144 mM)
solubility ([1]; aqueous co-solvent/surfactant solvent system, pH 6.6, aqueous with cosolvent or surfactant or cyclodextrin, 8% PG, 0.04% PS80, 92.0% water, pH 6.6): 23.2 mg/mL (≈ 125 mM)
solubility ([1]; aqueous co-solvent/surfactant solvent system, pH 6.7, aqueous with cosolvent or surfactant or cyclodextrin, 4% EtOH, 0.04% PS80, 96.0% water, pH 6.7): 24.5 mg/mL (≈ 132 mM)
solubility ([1]; aqueous co-solvent/surfactant solvent system, pH 6.7, aqueous with cosolvent or surfactant or cyclodextrin, 8% EtOH, 12% PG, 80% phosphate buffer (5 mM), pH 6.7): 37.7 mg/mL (≈ 204 mM)
solubility ([1]; aqueous co-solvent/surfactant solvent system, pH 6.8, aqueous with cosolvent or surfactant or cyclodextrin, 0% EtOH, 16% PG, 84% phosphate buffer (5 mM), pH 6.8): 29.3 mg/mL (≈ 158 mM)
solubility ([1]; aqueous co-solvent/surfactant solvent system, pH 6.8, aqueous with cosolvent or surfactant or cyclodextrin, 2% EtOH, 16% PG, 82% phosphate buffer (5 mM), pH 6.8): 31 mg/mL (≈ 167 mM)
solubility ([1]; aqueous co-solvent/surfactant solvent system, pH 6.8, aqueous with cosolvent or surfactant or cyclodextrin, 8% EtOH, 4% PG, 88% phosphate buffer (5 mM), pH 6.8): 30.4 mg/mL (≈ 164 mM)
solubility ([1]; aqueous co-solvent/surfactant solvent system, pH 6.8, aqueous with cosolvent or surfactant or cyclodextrin, 8% EtOH, 8% PG, 84% phosphate buffer (5 mM), pH 6.8): 35 mg/mL (≈ 189 mM)
solubility ([1]; aqueous co-solvent/surfactant solvent system, pH 6.8, aqueous with cosolvent or surfactant or cyclodextrin, 8% EtOH, 16% PG, 76% phosphate buffer (5 mM), pH 6.8): 45.4 mg/mL (≈ 245 mM)
solubility ([1]; aqueous co-solvent/surfactant solvent system, pH 6.9, aqueous with cosolvent or surfactant or cyclodextrin, 4% EtOH, 16% PG, 80% phosphate buffer (5 mM), pH 6.9): 36.8 mg/mL (≈ 199 mM)
solubility ([1]; aqueous co-solvent/surfactant solvent system, pH 6.9, aqueous with cosolvent or surfactant or cyclodextrin, 6% EtOH, 16% PG, 78% phosphate buffer (5 mM), pH 6.9): 40.9 mg/mL (≈ 221 mM)
solubility ([1]; aqueous co-solvent/surfactant solvent system, pH 7, aqueous with cosolvent or surfactant or cyclodextrin, 6% EtOH, 12% PG, 82.0% phosphate buffer (5 mM), pH 7.0): 34.7 mg/mL (≈ 187 mM)
solubility ([1]; aqueous co-solvent/surfactant solvent system, pH 7, aqueous with cosolvent or surfactant or cyclodextrin, 8% EtOH, 16% PG, 76.0% phosphate buffer (5 mM), pH 7.0): 43.7 mg/mL (≈ 236 mM)
solubility ([1]; citrate buffer with co-solvent, pH 4.4, aqueous buffer, 4% Gly, 96.0% citrate buffer (10 mM), pH 4.4): 19.8 mg/mL (≈ 107 mM)
solubility ([1]; citrate buffer with co-solvent, pH 4.4, aqueous with cosolvent or surfactant or cyclodextrin, 8% PG, 92.0% citrate buffer (10 mM), pH 4.4): 23.2 mg/mL (≈ 125 mM)
solubility ([1]; citrate buffer with co-solvent, pH 4.5, aqueous buffer, 4% EtOH, 96.0% citrate buffer (10 mM), pH 4.5): 22.3 mg/mL (≈ 120 mM)
solubility ([1]; citrate buffer with surfactant, pH 4.5, aqueous with cosolvent or surfactant or cyclodextrin, 0.04% PS80, 100.0% citrate buffer (10 mM), pH 4.5): 19.1 mg/mL (≈ 103 mM)
solubility ([1]; water with co-solvent, pH 4.8, water, 4% Gly, 96.0% water, pH 4.8): 20.1 mg/mL (≈ 109 mM)
solubility ([1]; water with co-solvent, pH 5, aqueous with cosolvent or surfactant or cyclodextrin, 8% PG, 92.0% water, pH 5.0): 24.3 mg/mL (≈ 131 mM)
solubility ([1]; water with co-solvent, pH 5, water, 4% EtOH, 96.0% water, pH 5.0): 22.8 mg/mL (≈ 123 mM)
solubility ([1]; water with co-solvent, pH 6.7, water, 4% Gly, 96.0% water, pH 6.7): 20.1 mg/mL (≈ 109 mM)
solubility ([1]; water with co-solvent, pH 6.8, aqueous with cosolvent or surfactant or cyclodextrin, 8% PG, 92.0% water, pH 6.8): 24.6 mg/mL (≈ 133 mM)
solubility ([1]; water with co-solvent, pH 6.9, water, 4% EtOH, 96.0% water, pH 6.9): 24.3 mg/mL (≈ 131 mM)
solubility ([1]; water with surfactant, pH 4.8, aqueous with cosolvent or surfactant or cyclodextrin, 0.04% PS80, 100.0% water, pH 4.8): 8.3 mg/mL (≈ 44.8 mM)
Lung Tissue Cmax ([2]; 30 mg/kg PO, rat (Table 22)): ~10 µg/mL
AUC(0-t) [2, 3]: 3200 ng·h/mL
Cmax [2, 3]: 3400 ng/mL
AUC(0-t) [2, 4]: 5800 ng·h/mL
Cmax [2, 4]: 8800 ng/mL
AUC(0-t) [2, 5]: 14600 ng·h/mL
Cmax [2, 5]: 22800 ng/mL
AUC(0-t) ([2]; oral gavage 10 mg/kg): 4400 ng·h/mL
Cmax ([2]; oral gavage 10 mg/kg): 3600 ng/mL
AUC(0-t) ([2]; oral gavage 30 mg/kg): 12900 ng·h/mL
Cmax ([2]; oral gavage 30 mg/kg): 9800 ng/mL
AUC(0-t) ([2]; oral gavage 100 mg/kg): 24200 ng·h/mL
Cmax ([2]; oral gavage 100 mg/kg): 26300 ng/mL
Lung Tissue AUC(0-2 hr) [2, 6]: 3.5 µg·h/g
Lung Tissue Cmax [2, 6]: 14.4 μg/gram
Lung Tissue AUC(0-2 hr) ([2]; intratracheal aerosol 5 mg/kg): 6.6 µg·h/g
Lung Tissue Cmax ([2]; intratracheal aerosol 5 mg/kg): 27.9 μg/gram
Lung Tissue AUC(0-2 hr) ([2]; intratracheal aerosol 10 mg/kg): 14.5 µg·h/g
Lung Tissue Cmax ([2]; intratracheal aerosol 10 mg/kg): 61.1 μg/gram
adverse events ([2]; intratracheal aerosol over 2 minutes or oral gavage, Wistar rats): No adverse events were noted
Lung Tissue AUC(0-2 hr) ([2]; oral gavage 10 mg/kg): 4.9 µg·h/g
Lung Tissue Cmax ([2]; oral gavage 10 mg/kg): 3.5 μg/gram
Lung Tissue AUC(0-2 hr) ([2]; oral gavage 30 mg/kg): 13.5 µg·h/g
Lung Tissue Cmax ([2]; oral gavage 30 mg/kg): 9.8 μg/gram
Lung Tissue AUC(0-2 hr) ([2]; oral gavage 100 mg/kg): 27.9 µg·h/g
Lung Tissue Cmax ([2]; oral gavage 100 mg/kg): 33.6 μg/gram
